Assay results published in paper PMC5587527, “A fragment-based approach leading to the discovery of a novel binding site and the selective CK2 inhibitor CAM4066” (Bioorganic & Medicinal Chemistry, 2017).

Key:
CK2α [1] = molecular target: T1, CK2α (Homo sapiens, UniProt P68400); assay: biochemical; conditions: read-out: % Inhibition at 500 μM
CK2α [2] = molecular target: T1, CK2α; conditions: from ITC Kd

T1 sequence (P68400 whole entry): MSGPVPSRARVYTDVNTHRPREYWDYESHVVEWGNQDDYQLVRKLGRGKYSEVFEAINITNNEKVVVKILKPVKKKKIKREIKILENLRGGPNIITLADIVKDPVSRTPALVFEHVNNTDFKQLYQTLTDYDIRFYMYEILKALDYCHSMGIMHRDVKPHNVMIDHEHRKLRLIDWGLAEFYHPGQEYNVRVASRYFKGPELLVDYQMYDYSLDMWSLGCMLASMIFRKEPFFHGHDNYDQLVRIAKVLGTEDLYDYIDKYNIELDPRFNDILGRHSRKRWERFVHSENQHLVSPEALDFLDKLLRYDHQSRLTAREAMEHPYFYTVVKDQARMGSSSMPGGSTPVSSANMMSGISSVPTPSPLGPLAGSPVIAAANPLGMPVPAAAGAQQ

CNCc1ccc(-c2ccccc2)c(Cl)c1 [Compound 10]
inhibition at 500 µM (CK2α [1]): 44 ± 12%

CCNCc1ccc(-c2ccccc2)c(Cl)c1 [Compound 11]
inhibition at 500 µM (CK2α [1]): 23 ± 6%

CCCNCc1ccc(-c2ccccc2)c(Cl)c1 [Compound 12]
inhibition at 500 µM (CK2α [1]): 33 ± 5%

OCCCNCc1ccc(-c2ccccc2)c(Cl)c1 [Compound 13]
inhibition at 500 µM (CK2α [1]): 47 ± 5%

NCCCCNCc1ccc(-c2ccccc2)c(Cl)c1 [Compound 14]
inhibition at 500 µM (CK2α [1]): 18 ± 2%

CC(=O)NCCCNCc1ccc(-c2ccccc2)c(Cl)c1 [Compound 15]
inhibition at 500 µM (CK2α [1]): 39 ± 3%

NC(=O)CCNCc1ccc(-c2ccccc2)c(Cl)c1 [Compound 16]
inhibition at 500 µM (CK2α [1]): 16 ± 6%

CC(=O)NCCNCc1ccc(-c2ccccc2)c(Cl)c1 [Compound 17]
inhibition at 500 µM (CK2α [1]): 12 ± 4%

CS(=O)(=O)NCCCNCc1ccc(-c2ccccc2)c(Cl)c1 [Compound 18]
inhibition at 500 µM (CK2α [1]): 51 ± 10%

COC(=O)CC(=O)NCCCNCc1ccc(-c2ccccc2)c(Cl)c1.Cl [Compound 19]
ligand efficiency (CK2α [2]): 0.23 | inhibition at 500 µM (CK2α [1]): 46 ± 2%

O=C(O)CC(=O)NCCCNCc1ccc(-c2ccccc2)c(Cl)c1 [Compound 20]
ligand efficiency (CK2α [2]): 0.19 | inhibition at 500 µM (CK2α [1]): 20 ± 4%
